melting point	Compound
230.7 to 233.1 °C	CC1(COc2ccc(N3CCN(c4ccc(C(F)(F)F)cc4)CC3)cc2)Cn2cc([N+](=O)[O-])nc2O1 (stereo not shown)
212 to 214.5 °C	CC(C)(C)OC(=O)N1CCN(c2ccc(OCC3(C)Cn4cc([N+](=O)[O-])nc4O3)cc2)CC1 (stereo not shown)
227.5 to 229 °C	C[C@]1(COc2ccc(N3CCSCC3)cc2)Cn2cc([N+](=O)[O-])nc2O1
238 to 240 °C (dec.)	O=C(Nc1ccc(F)cc1)N1CCC2(CC1)Cn1cc([N+](=O)[O-])nc1O2
> 300 °C	Cc1ccc(NC(=O)N2CCC3(CC2)Cn2cc([N+](=O)[O-])nc2O3)cc1
181 to 182 °C	CC(C)(C)OC(=O)N1CCC(N2CCN(C[C@@]3(C)Cn4cc([N+](=O)[O-])nc4O3)CC2)CC1
157 to 158 °C	C[C@]1(CN2CCN(C3CCN(CC=Cc4ccc(OC(F)(F)F)cc4)CC3)CC2)Cn2cc([N+](=O)[O-])nc2O1
198 to 200 °C	C[C@]1(COc2ccc(N3CC[S+]([O-])CC3)cc2)Cn2cc([N+](=O)[O-])nc2O1
130.5 to 132 °C	CN(CCOc1ccc(Cl)cc1)C[C@@]1(C)Cn2cc([N+](=O)[O-])nc2O1
177.5 to 178.5 °C	CN(Cc1cccc(Cl)c1)C[C@@]1(C)Cn2cc([N+](=O)[O-])nc2O1
168 to 169 °C	CN(Cc1ccc(N(C)C)cc1)C[C@@]1(C)Cn2cc([N+](=O)[O-])nc2O1
158.8 to 163.9 °C	C[C@]1(CN2CCC(c3ccccc3)CC2)Cn2cc([N+](=O)[O-])nc2O1
159 to 160 °C	CC1(CN2CCN(c3ccc(C(F)(F)F)cc3)CC2)Cn2cc([N+](=O)[O-])nc2O1 (stereo not shown)
158.3 to 159.8 °C	CC(C)OC(=O)N1CCN(CC2(C)Cn3cc([N+](=O)[O-])nc3O2)CC1 (stereo not shown)
204 to 206 °C (dec.)	CC1(CN2CCN(C(=S)Nc3ccc(Cl)cc3)CC2)Cn2cc([N+](=O)[O-])nc2O1 (stereo not shown)
189 to 191 °C (dec.)	COc1ccc(NC(=S)N2CCN(CC3(C)Cn4cc([N+](=O)[O-])nc4O3)CC2)cc1 (stereo not shown)
182 to 184 °C	C[C@]1(CN2CCN(Cc3ccc(-c4ccccc4)cc3)CC2)Cn2cc([N+](=O)[O-])nc2O1
150 to 155.2 °C	CC1(CN2CCN(C(=O)c3ccc(Cl)cc3)CC2)Cn2cc([N+](=O)[O-])nc2O1 (stereo not shown)
161 to 162 °C	CC1(CN2CCN(C(=O)c3ccc(C(F)(F)F)cc3)CC2)Cn2cc([N+](=O)[O-])nc2O1 (stereo not shown)
121 to 122 °C	Cc1ccc(C(=O)N2CCN(CC3(C)Cn4cc([N+](=O)[O-])nc4O3)CC2)cc1 (stereo not shown)
122 to 124 °C	CC1(CN2CCN(C(=O)c3cccc(C(F)(F)F)c3)CC2)Cn2cc([N+](=O)[O-])nc2O1 (stereo not shown)

melting point	Compound
146 to 147 °C	C[C@]1(CN2CCN(C(=O)CCCc3ccc(Cl)cc3)CC2)Cn2cc([N+](=O)[O-])nc2O1
108 to 111 °C	C[C@]1(CN2CCN(C(=O)CCCCc3ccc(Cl)cc3)CC2)Cn2cc([N+](=O)[O-])nc2O1
216 to 218 °C	C[C@]1(CN2CCN(S(=O)(=O)c3ccc(Cl)cc3)CC2)Cn2cc([N+](=O)[O-])nc2O1
80 to 100 °C (dec.)	CN1C(=O)C(C)(C)c2cc(COC(=O)N3CCN(C[C@@]4(C)Cn5cc([N+](=O)[O-])nc5O4)CC3)ccc21
98 to 101 °C	C[C@]1(CN2CCN(C(=O)NC3CCCCC3)CC2)Cn2cc([N+](=O)[O-])nc2O1
183 to 184 °C	CC1(CN2CCN(C(=O)Nc3cccc(C(F)(F)F)c3)CC2)Cn2cc([N+](=O)[O-])nc2O1 (stereo not shown)
207 to 210 °C (dec.)	Cc1ccc(NC(=O)N2CCN(C[C@@]3(C)Cn4cc([N+](=O)[O-])nc4O3)CC2)cc1
161 to 162 °C	C[C@]1(CN2CCN(C(=O)N3CC=C(c4ccc(Cl)cc4)CC3)CC2)Cn2cc([N+](=O)[O-])nc2O1
248 to 252 °C	C[C@]1(CN2CCN(c3ccc(C(=O)O)cc3)CC2)Cn2cc([N+](=O)[O-])nc2O1
202.5 to 205.4 °C	C[C@]1(CN2CCN(c3cc(-c4ccccc4)nc(-c4ccccc4)n3)CC2)Cn2cc([N+](=O)[O-])nc2O1
201.2 to 205.4 °C	C[C@]1(CN2CCN(c3nc(-c4ccccc4)cc(-c4ccccc4)n3)CC2)Cn2cc([N+](=O)[O-])nc2O1
190.2 to 191.8 °C	C[C@]1(CN2CCN(N=Cc3cc4cc(C(F)(F)F)ccc4o3)CC2)Cn2cc([N+](=O)[O-])nc2O1
178.6 to 179.3 °C	C[C@]1(CN2CCN(N=C3CCCCC3)CC2)Cn2cc([N+](=O)[O-])nc2O1
188 to 191 °C	CC1(Cn2nc(-c3ccc(F)cc3)oc2=O)Cn2cc([N+](=O)[O-])nc2O1 (stereo not shown)
246.2 to 246.8 °C	CC1(Cn2c(=O)oc3ccc(F)cc32)Cn2cc([N+](=O)[O-])nc2O1 (stereo not shown)
203.2 to 204.4 °C	Cn1c(=O)n(CC2(C)Cn3cc([N+](=O)[O-])nc3O2)c2ccccc21 (stereo not shown)
135 to 137 °C	CCn1nnnc1CCC1(C)Cn2cc([N+](=O)[O-])nc2O1 (stereo not shown)
212 to 214 °C	CC1(c2cccnc2)Cn2cc([N+](=O)[O-])nc2O1 (stereo not shown)
229 to 232 °C (dec.)	O=C(Nc1ccccc1)N1CCC2(CC1)Cn1cc([N+](=O)[O-])nc1O2
133 to 135 °C	O=C(CN1CCN(CC(=O)N2CCC3(CC2)Cn2cc([N+](=O)[O-])nc2O3)CC1)Nc1ccc(C(F)(F)F)cc1

The next lines start with the molecule.

Compound	melting point
C[C@]1(COC(=O)N2CCc3cc(Cl)ccc32)Cn2cc([N+](=O)[O-])nc2O1	189 to 191 °C
C[C@]1(COC(=O)N2CCc3cc(Cl)ccc3C2)Cn2cc([N+](=O)[O-])nc2O1	180 to 182 °C
CC(C)(C)OC(=O)N1CCC(c2ccc(OCC3(C)Cn4cc([N+](=O)[O-])nc4O3)cc2)CC1 (stereo not shown)	207.8 to 209.1 °C
O=C(Nc1ccc(C(F)(F)F)cc1)N1CCC2(CC1)Cn1cc([N+](=O)[O-])nc1O2	215 to 217 °C
C[C@]1(CN2CCN(C3CCN(Cc4ccc(Cl)cc4)CC3)CC2)Cn2cc([N+](=O)[O-])nc2O1	168 to 169 °C
C[C@]1(CN2CCN(C3CCN(C(=O)c4ccc(Cl)cc4)CC3)CC2)Cn2cc([N+](=O)[O-])nc2O1	218 to 220 °C
C[C@]1(CN2CCC(N3CCN(C(=O)OCc4ccc(OC(F)(F)F)cc4)CC3)CC2)Cn2cc([N+](=O)[O-])nc2O1	110 to 111 °C
O=[N+]([O-])c1cn2c(n1)OC1(CCN(c3ccc(Cl)cc3)CC1)C2	242 to 245 °C
CN(CCN1CCN(c2ccc(C(F)(F)F)cc2)CC1)C[C@@]1(C)Cn2cc([N+](=O)[O-])nc2O1	148 to 150.5 °C
CC1(CNC(=O)OCc2ccc(Cl)cc2)Cn2cc([N+](=O)[O-])nc2O1 (stereo not shown)	221 to 221.8 °C
CNCC1(C)Cn2cc([N+](=O)[O-])nc2O1.O=C(O)C(F)(F)F (stereo not shown)	176.2 to 178.8 °C
CC1(CN2CCC(OCc3ccc(Cl)cc3)CC2)Cn2cc([N+](=O)[O-])nc2O1 (stereo not shown)	129 to 130 °C
CC1(CN2CCC(Cc3ccc(Cl)cc3)CC2)Cn2cc([N+](=O)[O-])nc2O1 (stereo not shown)	109 to 110.5 °C
C[C@]1(CN2CCC(OCc3ccc(Cl)c(Cl)c3)CC2)Cn2cc([N+](=O)[O-])nc2O1	132 to 136 °C
C[C@]1(CN2CCC(OCCCc3ccc(Cl)cc3)CC2)Cn2cc([N+](=O)[O-])nc2O1	88.8 to 91.9 °C
C[C@]1(CN2CC=C(c3ccccc3)CC2)Cn2cc([N+](=O)[O-])nc2O1	200.1 to 201 °C
C[C@]1(CN2CCC(OCC=Cc3ccc(Cl)cc3)CC2)Cn2cc([N+](=O)[O-])nc2O1	140.6 to 142.8 °C
C[C@]1(CN2CCC(NC(=O)OCc3ccc(C(F)(F)F)cc3)CC2)Cn2cc([N+](=O)[O-])nc2O1	141.2 to 144 °C
C[C@]1(CN2CCC(NCc3ccc(C(F)(F)F)cc3)CC2)Cn2cc([N+](=O)[O-])nc2O1	148.6 to 152.9 °C

Compound	melting point
CC1(CCN2CCN(Cc3ccc(C(F)(F)F)cc3)CC2)Cn2cc([N+](=O)[O-])nc2O1 (stereo not shown)	148 to 149 °C
CC1(CN2CCN(C(=O)Cc3ccc(C(F)(F)F)cc3)CC2)Cn2cc([N+](=O)[O-])nc2O1 (stereo not shown)	168 to 171.4 °C
CCCCCCCCOC(=O)N1CCN(CC2(C)Cn3cc([N+](=O)[O-])nc3O2)CC1 (stereo not shown)	138 to 139.4 °C
O=[N+]([O-])c1cn2c(n1)O[C@@H](CN1CCN(c3ccc(Cl)cc3)CC1)C2	183 to 183.5 °C
C[C@]1(CN2CCN(C(=O)OCC=Cc3ccc(OC(F)(F)F)cc3)CC2)Cn2cc([N+](=O)[O-])nc2O1	91 to 93 °C
C[C@]1(CN2CCN(S(=O)(=O)Cc3ccc(Cl)cc3)CC2)Cn2cc([N+](=O)[O-])nc2O1	204 to 206 °C
O=C(OCc1ccc(C(F)(F)F)cc1)N1CCN(C[C@H]2Cn3cc([N+](=O)[O-])nc3O2)CC1	125 to 125.5 °C
CC1(CN2CCN(N=Cc3ccc(OC(F)(F)F)cc3)CC2)Cn2cc([N+](=O)[O-])nc2O1 (stereo not shown)	189.2 to 190.9 °C
CC1(CCn2nc(-c3cnccn3)oc2=O)Cn2cc([N+](=O)[O-])nc2O1 (stereo not shown)	209 to 212 °C
CC1(Cn2c(=O)oc3ccc(Cl)cc32)Cn2cc([N+](=O)[O-])nc2O1 (stereo not shown)	207.6 to 207.9 °C
Cn1c(=O)n(CC2(C)Cn3cc([N+](=O)[O-])nc3O2)c2cc(F)ccc21 (stereo not shown)	244.2 to 249.8 °C (dec.)
CC1(CCN2CCN(C(C)(C)C)C(=O)C2)Cn2cc([N+](=O)[O-])nc2O1 (stereo not shown)	153 to 154 °C
CC1(CN2CCCN(C(=O)OCc3ccccc3)CC2)Cn2cc([N+](=O)[O-])nc2O1.Cl (stereo not shown)	115 to 117 °C
O=C(Cc1ccc(C(F)(F)F)cc1)N1CCC2(CC1)Cn1cc([N+](=O)[O-])nc1O2	185 to 187 °C
O=C(OCc1ccc(C(F)(F)F)cc1)N1CCC2(CC1)Cn1cc([N+](=O)[O-])nc1O2	189 to 190 °C
CC(C)(C)OC(=O)N1CCN(C(=O)N2CCC3(CC2)Cn2cc([N+](=O)[O-])nc2O3)CC1	260 to 265 °C (dec.)
O=C(CN1CCC2(CC1)Cn1cc([N+](=O)[O-])nc1O2)N1CCN(Cc2ccc(C(F)(F)F)cc2)CC1	195 to 197 °C (dec.)
CNC(=O)OC[C@@]1(C)Cn2cc([N+](=O)[O-])nc2O1	175 to 178 °C
CC1(COC(=O)N2CC=C(c3ccc(C(F)(F)F)cc3)CC2)Cn2cc([N+](=O)[O-])nc2O1 (stereo not shown)	113 to 115 °C

Reference: US7262212B2, “2,3-dihydro-6-nitroimidazo[2,1-b]oxazoles” (Otsuka Pharmaceutical Co., Ltd., priority 2002, dated 2007)
